Like-named read-outs stand apart in the source and are kept apart here.
How the values were obtained:
[1] = hygroscopicity of solid state forms of aripiprazole; format: physicochemical; settings: crystalline Type II, not milled
[2] = as taught by WO 03/26659 (EP 1330249); cited from earlier work

In the case of `O=C1CCc2ccc(OCCCCN3CCN(c4cccc(Cl)c4Cl)CC3)cc2N1` [Type II aripiprazole, 7-[4-[4-(2,3-dichlorophenyl)-1-piperazinyl]butoxy]-3,4-dihydrocarbostyril], the hygroscopicity [1] is reported as “not hygroscopic”.
For `O=C1CCc2ccc(OCCCCN3CCN(c4cccc(Cl)c4Cl)CC3)cc2N1` [Type I aripiprazole, 7-[4-[4-(2,3-dichlorophenyl)-1-piperazinyl]butoxy]-3,4-dihydrocarbostyril], the hygroscopicity [2] is listed as “significantly hygroscopic”.

Source: patent publication US8093387B2, “Process of making crystalline type II aripiprazole” (Synthon BV, priority 2005, dated 2012)
